Converted amounts (≈) assume the structure as drawn.
Key:
Assay type in all cases: functional
[1] = tested on: Penicillium chrysogenum; experiment: Antifungal activity against Penicillium chrysogenum MTCC 161 at 500 ug/ml after 18 hr by cup-plate method; settings: MTCC 161, 18 h, read-out: DIZ
[2] = tested on: Bacillus subtilis; experiment: Antibacterial activity against Bacillus subtilis MTCC 441 at 1000 ug/ml after 18 hr by cup plate method; settings: MTCC 441, 18 h, read-out: DIZ
[3] = tested on: Escherichia coli; experiment: Antibacterial activity against Escherichia coli MTCC 1573 at 200 ug/ml after 18 hr by cup-plate method; settings: MTCC 1573, 18 h, read-out: DIZ
[4] = tested on: Pseudomonas aeruginosa; experiment: Antibacterial activity against Pseudomonas aeruginosa MTCC 424 at 200 ug/ml after 18 hr by cup-plate method; settings: MTCC 424, 18 h, read-out: DIZ
[5] = tested on: Bacillus subtilis; experiment: Antibacterial activity against Bacillus subtilis MTCC 441 at 500 ug/ml after 18 hr by cup plate method; settings: MTCC 441, 18 h, read-out: DIZ
[6] = tested on: Pseudomonas aeruginosa; experiment: Antibacterial activity against Pseudomonas aeruginosa MTCC 424 at 500 ug/ml after 18 hr by cup-plate method; settings: MTCC 424, 18 h, read-out: DIZ
[7] = tested on: Penicillium chrysogenum; experiment: Antifungal activity against Penicillium chrysogenum MTCC 161 at 100 ug/ml after 18 hr by cup-plate method; settings: MTCC 161, 18 h, read-out: DIZ
[8] = tested on: Penicillium chrysogenum; experiment: Antifungal activity against Penicillium chrysogenum MTCC 161 at 1000 ug/ml after 18 hr by cup-plate method; settings: MTCC 161, 18 h, read-out: DIZ
[9] = tested on: Bacillus subtilis; experiment: Antibacterial activity against Bacillus subtilis MTCC 441 at 1500 ug/ml after 18 hr by cup plate method; settings: MTCC 441, 18 h, read-out: DIZ
[10] = tested on: Micrococcus luteus; experiment: Antibacterial activity against Micrococcus luteus MTCC 1538 at 500 ug/ml after 18 hr by cup-plate method; settings: MTCC 1538, 18 h, read-out: DIZ
[11] = tested on: Pseudomonas aeruginosa; experiment: Antibacterial activity against Pseudomonas aeruginosa MTCC 424 at 1500 ug/ml after 18 hr by cup-plate method; settings: MTCC 424, 18 h, read-out: DIZ
[12] = tested on: Staphylococcus aureus; experiment: Antibacterial activity against Staphylococcus aureus MTCC 1430 at 1500 ug/ml after 18 hr by cup-plate method; settings: MTCC 1430, 18 h, read-out: DIZ
[13] = tested on: Bacillus subtilis; experiment: Antibacterial activity against Bacillus subtilis MTCC 441 at 100 ug/ml after 18 hr by cup plate method; settings: MTCC 441, 18 h, read-out: DIZ
[14] = tested on: Bacillus pumilus; experiment: Antibacterial activity against Bacillus pumilus MTCC 1456 at 1500 ug/ml after 18 hr by cup-plate method; settings: MTCC 1456, 18 h, read-out: DIZ
[15] = tested on: Bacillus pumilus; experiment: Antibacterial activity against Bacillus pumilus MTCC 1456 at 500 ug/ml after 18 hr by cup-plate method; settings: MTCC 1456, 18 h, read-out: DIZ
[16] = tested on: Pseudomonas fluorescens; experiment: Antibacterial activity against Pseudomonas fluorescens MTCC 2421 at 1500 ug/ml after 18 hr by cup-plate method; settings: MTCC 2421, 18 h, read-out: DIZ
[17] = tested on: Aspergillus niger; experiment: Antifungal activity against Aspergillus niger MTCC 2546 after 24 hr by broth dilution method; settings: MTCC 2546, 24 h
[18] = tested on: Bacillus subtilis; experiment: Antibacterial activity against Bacillus subtilis MTCC 441 at 200 ug/ml after 18 hr by cup plate method; settings: MTCC 441, 18 h, read-out: DIZ
[19] = tested on: Pseudomonas fluorescens; experiment: Antibacterial activity against Pseudomonas fluorescens MTCC 2421 at 200 ug/ml after 18 hr by cup-plate method; settings: MTCC 2421, 18 h, read-out: DIZ
[20] = tested on: Micrococcus luteus; experiment: Antibacterial activity against Micrococcus luteus MTCC 1538 at 100 ug/ml after 18 hr by cup-plate method; settings: MTCC 1538, 18 h, read-out: DIZ
[21] = tested on: Bacillus subtilis; experiment: Antibacterial activity against Bacillus subtilis MTCC 441 after 24 hr by broth dilution method; settings: MTCC 441, 24 h
[22] = tested on: Pseudomonas fluorescens; experiment: Antibacterial activity against Pseudomonas fluorescens MTCC 2421 at 100 ug/ml after 18 hr by cup-plate method; settings: MTCC 2421, 18 h, read-out: DIZ
[23] = tested on: Pseudomonas aeruginosa; experiment: Antibacterial activity against Pseudomonas aeruginosa MTCC 424 at 100 ug/ml after 18 hr by cup-plate method; settings: MTCC 424, 18 h, read-out: DIZ
[24] = tested on: Aspergillus niger; experiment: Antifungal activity against Aspergillus niger MTCC 2546 at 100 ug/ml after 18 hr by cup-plate method; settings: MTCC 2546, 18 h, read-out: DIZ
[25] = tested on: Escherichia coli; experiment: Antibacterial activity against Escherichia coli MTCC 1573 at 1500 ug/ml after 18 hr by cup-plate method; settings: MTCC 1573, 18 h, read-out: DIZ
[26] = tested on: Penicillium chrysogenum; experiment: Antifungal activity against Penicillium chrysogenum MTCC 161 at 1500 ug/ml after 18 hr by cup-plate method; settings: MTCC 161, 18 h, read-out: DIZ
[27] = tested on: Micrococcus luteus; experiment: Antibacterial activity against Micrococcus luteus MTCC 1538 at 200 ug/ml after 18 hr by cup-plate method; settings: MTCC 1538, 18 h, read-out: DIZ
[28] = tested on: Pseudomonas fluorescens; experiment: Antibacterial activity against Pseudomonas fluorescens MTCC 2421 at 1000 ug/ml after 18 hr by cup-plate method; settings: MTCC 2421, 18 h, read-out: DIZ
[29] = tested on: Pseudomonas fluorescens; experiment: Antibacterial activity against Pseudomonas fluorescens MTCC 2421 after 24 hr by broth dilution method; settings: MTCC 2421, 24 h
[30] = tested on: Escherichia coli; experiment: Antibacterial activity against Escherichia coli MTCC 1573 at 1000 ug/ml after 18 hr by cup-plate method; settings: MTCC 1573, 18 h, read-out: DIZ
[31] = tested on: Micrococcus luteus; experiment: Antibacterial activity against Micrococcus luteus MTCC 1538 after 24 hr by broth dilution method; settings: MTCC 1538, 24 h
[32] = tested on: Bacillus pumilus; experiment: Antibacterial activity against Bacillus pumilus MTCC 1456 at 100 ug/ml after 18 hr by cup-plate method; settings: MTCC 1456, 18 h, read-out: DIZ
[33] = tested on: Escherichia coli; experiment: Antibacterial activity against Escherichia coli MTCC 1573 at 100 ug/ml after 18 hr by cup-plate method; settings: MTCC 1573, 18 h, read-out: DIZ
[34] = tested on: Penicillium chrysogenum; experiment: Antifungal activity against Penicillium chrysogenum MTCC 161 after 24 hr by broth dilution method; settings: MTCC 161, 24 h
[35] = tested on: Aspergillus niger; experiment: Antifungal activity against Aspergillus niger MTCC 2546 at 500 ug/ml after 18 hr by cup-plate method; settings: MTCC 2546, 18 h, read-out: DIZ
[36] = tested on: Escherichia coli; experiment: Antibacterial activity against Escherichia coli MTCC 1573 after 24 hr by broth dilution method; settings: MTCC 1573, 24 h
[37] = tested on: Bacillus pumilus; experiment: Antibacterial activity against Bacillus pumilus MTCC 1456 after 24 hr by broth dilution method; settings: MTCC 1456, 24 h
[38] = tested on: Pseudomonas fluorescens; experiment: Antibacterial activity against Pseudomonas fluorescens MTCC 2421 at 500 ug/ml after 18 hr by cup-plate method; settings: MTCC 2421, 18 h, read-out: DIZ
[39] = tested on: Staphylococcus aureus; experiment: Antibacterial activity against Staphylococcus aureus MTCC 1430 at 200 ug/ml after 18 hr by cup-plate method; settings: MTCC 1430, 18 h, read-out: DIZ
[40] = tested on: Micrococcus luteus; experiment: Antibacterial activity against Micrococcus luteus MTCC 1538 at 1500 ug/ml after 18 hr by cup-plate method; settings: MTCC 1538, 18 h, read-out: DIZ
[41] = tested on: Staphylococcus aureus; experiment: Antibacterial activity against Staphylococcus aureus MTCC 1430 at 500 ug/ml after 18 hr by cup-plate method; settings: MTCC 1430, 18 h, read-out: DIZ
[42] = tested on: Staphylococcus aureus; experiment: Antibacterial activity against Staphylococcus aureus MTCC 1430 at 1000 ug/ml after 18 hr by cup-plate method; settings: MTCC 1430, 18 h, read-out: DIZ
[43] = tested on: Bacillus pumilus; experiment: Antibacterial activity against Bacillus pumilus MTCC 1456 at 200 ug/ml after 18 hr by cup-plate method; settings: MTCC 1456, 18 h, read-out: DIZ
[44] = tested on: Penicillium chrysogenum; experiment: Antifungal activity against Penicillium chrysogenum MTCC 161 at 200 ug/ml after 18 hr by cup-plate method; settings: MTCC 161, 18 h, read-out: DIZ
[45] = tested on: Pseudomonas aeruginosa; experiment: Antibacterial activity against Pseudomonas aeruginosa MTCC 424 after 24 hr by broth dilution method; settings: MTCC 424, 24 h
[46] = tested on: Escherichia coli; experiment: Antibacterial activity against Escherichia coli MTCC 1573 at 500 ug/ml after 18 hr by cup-plate method; settings: MTCC 1573, 18 h, read-out: DIZ
[47] = tested on: Staphylococcus aureus; experiment: Antibacterial activity against Staphylococcus aureus MTCC 1430 after 24 hr by broth dilution method; settings: MTCC 1430, 24 h
[48] = tested on: Aspergillus niger; experiment: Antifungal activity against Aspergillus niger MTCC 2546 at 1000 ug/ml after 18 hr by cup-plate method; settings: MTCC 2546, 18 h, read-out: DIZ
[49] = tested on: Micrococcus luteus; experiment: Antibacterial activity against Micrococcus luteus MTCC 1538 at 1000 ug/ml after 18 hr by cup-plate method; settings: MTCC 1538, 18 h, read-out: DIZ
[50] = tested on: Bacillus pumilus; experiment: Antibacterial activity against Bacillus pumilus MTCC 1456 at 1000 ug/ml after 18 hr by cup-plate method; settings: MTCC 1456, 18 h, read-out: DIZ
[51] = tested on: Aspergillus niger; experiment: Antifungal activity against Aspergillus niger MTCC 2546 at 200 ug/ml after 18 hr by cup-plate method; settings: MTCC 2546, 18 h, read-out: DIZ
[52] = tested on: Aspergillus niger; experiment: Antifungal activity against Aspergillus niger MTCC 2546 at 1500 ug/ml after 18 hr by cup-plate method; settings: MTCC 2546, 18 h, read-out: DIZ
[53] = tested on: Pseudomonas aeruginosa; experiment: Antibacterial activity against Pseudomonas aeruginosa MTCC 424 at 1000 ug/ml after 18 hr by cup-plate method; settings: MTCC 424, 18 h, read-out: DIZ

- MIC [17]: 500 µg/mL (≈ 3080 µM)
- MIC [21]: 300 µg/mL (≈ 1850 µM)
- MIC [29]: 300 µg/mL (≈ 1850 µM)
- MIC [31]: 300 µg/mL (≈ 1850 µM)
- MIC [34]: 500 µg/mL (≈ 3080 µM)
- MIC [36]: 400 µg/mL (≈ 2470 µM)
- MIC [37]: 300 µg/mL (≈ 1850 µM)
- MIC [45]: 500 µg/mL (≈ 3080 µM)
- MIC [47]: 600 µg/mL (≈ 3700 µM)
Compound: C(=N\c1nc[nH]n1)/c1ccco1
- zone of inhibition at 500 µg/mL [1]: 17 mm
- zone of inhibition at 1000 µg/mL [2]: 17 mm
- zone of inhibition at 200 µg/mL [3]: 13 mm
- zone of inhibition at 200 µg/mL [4]: 11 mm
- zone of inhibition at 500 µg/mL [5]: 16 mm
- zone of inhibition at 500 µg/mL [6]: 13 mm
- zone of inhibition at 100 µg/mL [7]: 11 mm
- zone of inhibition at 1000 µg/mL [8]: 18 mm
- zone of inhibition at 1500 µg/mL [9]: 22 mm
- zone of inhibition at 500 µg/mL [10]: 18 mm
- zone of inhibition at 1500 µg/mL [11]: 21 mm
- zone of inhibition at 1500 µg/mL [12]: 18 mm
- zone of inhibition at 100 µg/mL [13]: 11 mm
- zone of inhibition at 1500 µg/mL [14]: 20 mm
- zone of inhibition at 500 µg/mL [15]: 16 mm
- zone of inhibition at 1500 µg/mL [16]: 23 mm
- zone of inhibition at 200 µg/mL [18]: 15 mm
- zone of inhibition at 200 µg/mL [19]: 16 mm
- zone of inhibition at 100 µg/mL [20]: 12 mm
- zone of inhibition at 100 µg/mL [22]: 13 mm
- zone of inhibition at 100 µg/mL [23]: 10 mm
- zone of inhibition at 100 µg/mL [24]: 11 mm
- zone of inhibition at 1500 µg/mL [25]: 25 mm
- zone of inhibition at 1500 µg/mL [26]: 21 mm
- zone of inhibition at 200 µg/mL [27]: 16 mm
- zone of inhibition at 1000 µg/mL [28]: 20 mm
- zone of inhibition at 1000 µg/mL [30]: 15 mm
- zone of inhibition at 100 µg/mL [32]: 11 mm
- zone of inhibition at 100 µg/mL [33]: 10 mm
- zone of inhibition at 500 µg/mL [35]: 18 mm
- zone of inhibition at 500 µg/mL [38]: 18 mm
- zone of inhibition at 200 µg/mL [39]: 12 mm
- zone of inhibition at 1500 µg/mL [40]: 22 mm
- zone of inhibition at 500 µg/mL [41]: 14 mm
- zone of inhibition at 1000 µg/mL [42]: 15 mm
- zone of inhibition at 200 µg/mL [43]: 15 mm
- zone of inhibition at 200 µg/mL [44]: 15 mm
- zone of inhibition at 500 µg/mL [46]: 14 mm
- zone of inhibition at 1000 µg/mL [48]: 19 mm
- zone of inhibition at 1000 µg/mL [49]: 21 mm
- zone of inhibition at 1000 µg/mL [50]: 17 mm
- zone of inhibition at 200 µg/mL [51]: 16 mm
- zone of inhibition at 1500 µg/mL [52]: 23 mm
- zone of inhibition at 1000 µg/mL [53]: 15 mm
